Test results as given in patent US9301524B2, “Methods for reducing leaf senescence using methyl dihydrojasmonate” (New Biology, Inc., priority 2008, dated 2016).

Tests used:
miniature PARADE® roses = assay: Foliar MDHJ spray, leaf senescence in potted miniature roses (Example 1); type: in vivo
Protocol: Potted miniature […]® roses were evaluated for the effect on leaf senescence of foliar spray treatment with an MDHJ formulation. […] Another group of four plants was sprayed with a formulation comprising 1.5 mM MDHJ, 0.5% TRITON® X-100, and 0.125% canola oil. The treated plants were sprayed on six occasions, on days 1, 3, 12, 29, 31, and 58, by spraying foliage to the point of drip. […] Senescence was indicated by chlorosis and necrosis affecting greater than 50% of an individual leaflet.

Yellow Dwarf roses = assay: Foliar MDHJ spray, leaf senescence in potted Yellow Dwarf roses (Example 2); type: in vivo; settings: one foliar spray
Protocol: Potted Yellow Dwarf roses were grouped into one of four groups, and each of the groups received one treatment. One group was an untreated control (UTC), while the other three groups were treated with aqueous solutions of MDHJ that differed only in the concentration of MDHJ. There were three plants in each group. Before the trial began, naturally senescing leaves were visible on all plants; these were removed at the time that the trial began. The rose leaves received one foliar spray treatment by applying spray until the point of drip. […] Senescence was indicated by chlorosis and necrosis affecting greater than 50% of an individual leaf. After each evaluation, senescing leaves were removed. [table]

[1] = tested on: spinach seedlings, cultivar 'Merlo Nero'; assay: MDHJ spray, leaf senescence in greenhouse-grown spinach seedlings (Example 3); type: in vivo
Protocol: Greenhouse-grown spinach seedlings, cultivar ‘Merlo Nero,’ were divided into two groups, with eight plants per group. One group was left untreated, while the other group was treated with 0.5 mM MDHJ in 0.1% ethanol by spraying leaves until the point of drip. Treatments occurred on days 1, 4 and 8 of the experiment. On day 6, senescence was noted on some leaves, defined by chlorosis and/or necrosis. Senescence began at the leaf tip and spread towards the petiole. […] All leaves from each plant were then harvested and combined for each treatment. The total number of senescing leaves were counted and taken as a percentage of the total number of leaves per treatment. Senescence was indicated by chlorosis and necrosis affecting greater than 50% of an individual leaf.

[2] = tested on: corn ('Kandy Korn', extra sweet) seedlings; assay: Foliar MDHJ spray, leaf senescence in corn seedlings (Example 4); type: in vivo; settings: 6 days after treatment
Protocol: Seeds of corn (‘Kandy Korn’, extra sweet) were planted in 2-inch pots. Seedlings were germinated under 16-hour day/8-hour night greenhouse conditions. Plants were placed outdoors and received 5-6 hours of natural, direct light. Eighteen days after planting, seedlings received one of two treatments. • Treatment 1 (n=11): Foliar spray with water—control • Treatment 2 (n=12): Foliar spray of 1 mM MDHJ in water. Plant leaves from both treatments were sprayed until the point of drip and allowed to air dry before being randomly combined into the same growing tray (to provide plants from both treatments with identical growing conditions). […] Plants were observed and visible leaf senescence recorded 6 days after the single treatment. Plants were scored according to presence or absence of senescence on any leaf of the plant. […] Of the plants with senescing leaves, only one leaf per plant had senescence (10%) in the Treatment 2 group.

Solubility in water = type: physicochemical
plants = settings: U.S. Patent Application Publication No. 2009/0082453; cited from earlier work
[3] = tested on: corn, rice, wheat, oat, barley, arabidopsis, sunflower, and zucchini; settings: application to intact as well as excised plant leaves; literature; cited from earlier work

CCCCCC1C(=O)CCC1CC(=O)OC (stereo not shown) [MDHJ, methyl dihydrojasmonate]
senescing leaves (in words) (miniature PARADE® roses; 1.5 mM MDHJ foliar spray, sixty-five days after treatment, untreated up to 9.4% of leaflets): no senescing leaves | % Leaflets exhibiting senescence (miniature PARADE® roses; individual plant, foliar spray 1.5 mM MDHJ, 0.5% TRITON X-100, 0.125% canola oil on days 1, 3, 12, 29, 31, 58, analyzed 65 days after first treatment, senescence = chlorosis and necrosis >50% of leaflet): 0.0% | rate of naturally senescing leaves compared to the untreated control group (in words) (Yellow Dwarf roses; MDHJ treatment in general (1.5, 3.0, 6.0 mM)): reduced the rate of naturally senescing leaves | Mean No. Leaves (exhibiting senescence) (Yellow Dwarf roses; Treatment Group 2: 1.5 mM MDHJ + 0.125% TRITON X-100 + 0.5% Canola Oil, Day 3): 27 | Mean No. Leaves (exhibiting senescence) (Yellow Dwarf roses; Treatment Group 2: 1.5 mM MDHJ + 0.125% TRITON X-100 + 0.5% Canola Oil, Day 7): 1 | Mean No. Leaves (exhibiting senescence) (Yellow Dwarf roses; Treatment Group 2: 1.5 mM MDHJ + 0.125% TRITON X-100 + 0.5% Canola Oil, Day 10): 5 | Mean No. Leaves (exhibiting senescence) (Yellow Dwarf roses; Treatment Group 2: 1.5 mM MDHJ + 0.125% TRITON X-100 + 0.5% Canola Oil, Day 14): 13 | Mean No. Leaves (exhibiting senescence) (Yellow Dwarf roses; Treatment Group 2: 1.5 mM MDHJ + 0.125% TRITON X-100 + 0.5% Canola Oil, Day 31): 27 | Mean No. Leaves (exhibiting senescence) (Yellow Dwarf roses; Treatment Group 3: 3.0 mM MDHJ + 0.125% TRITON X-100 + 0.5% Canola Oil, Day 3): 25 | Mean No. Leaves (exhibiting senescence) (Yellow Dwarf roses; Treatment Group 3: 3.0 mM MDHJ + 0.125% TRITON X-100 + 0.5% Canola Oil, Day 7): 1 | Mean No. Leaves (exhibiting senescence) (Yellow Dwarf roses; Treatment Group 3: 3.0 mM MDHJ + 0.125% TRITON X-100 + 0.5% Canola Oil, Day 10): 4 | Mean No. Leaves (exhibiting senescence) (Yellow Dwarf roses; Treatment Group 3: 3.0 mM MDHJ + 0.125% TRITON X-100 + 0.5% Canola Oil, Day 14): 12 | Mean No. Leaves (exhibiting senescence) (Yellow Dwarf roses; Treatment Group 3: 3.0 mM MDHJ + 0.125% TRITON X-100 + 0.5% Canola Oil, Day 31): 25 | Mean No. Leaves (exhibiting senescence) (Yellow Dwarf roses; Treatment Group 4: 6.0 mM MDHJ + 0.125% TRITON X-100 + 0.5% Canola Oil, Day 3): 23 | Mean No. Leaves (exhibiting senescence) (Yellow Dwarf roses; Treatment Group 4: 6.0 mM MDHJ + 0.125% TRITON X-100 + 0.5% Canola Oil, Day 7): 2 | Mean No. Leaves (exhibiting senescence) (Yellow Dwarf roses; Treatment Group 4: 6.0 mM MDHJ + 0.125% TRITON X-100 + 0.5% Canola Oil, Day 10): 5 | Mean No. Leaves (exhibiting senescence) (Yellow Dwarf roses; Treatment Group 4: 6.0 mM MDHJ + 0.125% TRITON X-100 + 0.5% Canola Oil, Day 14): 12 | Mean No. Leaves (exhibiting senescence) (Yellow Dwarf roses; Treatment Group 4: 6.0 mM MDHJ + 0.125% TRITON X-100 + 0.5% Canola Oil, Day 31): 23 | % of Leaves Exhibiting Senescence ([1]; 0.5 mM MDHJ in 0.1% ethanol sprayed on days 1, 4 and 8, counted day 8, untreated 34.6%): 8.6% | % of Plants Exhibiting Senescence ([1]; 0.5 mM MDHJ in 0.1% ethanol, day 8, eight plants, untreated 87.5%): 37.5% | Number of Plants Exhibiting Chlorosis or Necrosis ([1]; 0.5 mM MDHJ in 0.1% ethanol, day 8, of 8 plants, untreated 7): 3 | Number of Senescent Leaves ([1]; 0.5 mM MDHJ in 0.1% ethanol, day 8, of 93 leaves in total, untreated 36 of 104): 8 | of the plants with senescing leaves, only one leaf per plant had senescence (percentage in brackets) ([2]; Treatment 2: 1 mM MDHJ in water): 10% | severity of senescence: mean % yellow per senescing leaf (leaf area) ([2]; Treatment 2: 1 mM MDHJ in water, water control 43%): 15% | % of plants with two senescent leaves ([2]; Treatment 2: single foliar spray of 1 mM MDHJ in water (n = 12), water control 27%): 0% | % of plants with one senescent leaf ([2]; Treatment 2: single foliar spray of 1 mM MDHJ in water (n = 12), water control 36%): 25% | % of plants with senescing leaves ([2]; Treatment 2: single foliar spray of 1 mM MDHJ in water (n = 12), water control 64%): 27% | solubility in water (in words) (Solubility in water): relatively low solubility in water | effect on biotic attack and disease in plants (in words) (plants): effective in reducing biotic attack and disease in plants

CC/C=C\CC1C(=O)CCC1CC(=O)OC (stereo not shown) [methyl jasmonate]
effect on leaf senescence (in words) [3]: promotes or accelerates leaf senescence

CC/C=C\CC1C(=O)CCC1CC(=O)O (stereo not shown) [jasmonic acid, 2-(3-oxo-2-(pent-2-enyl)cyclopentyl)acetic acid]
effect on leaf senescence (in words) [3]: promotes or accelerates leaf senescence
